Reference: publication PMC2241828, “Amyloglucosidase enzymatic reactivity inside lipid vesicles” (Journal of Biological Engineering, 2007)

Target: T1, amyloglucosidase (AMG), EC 3.2.1.3 (Aspergillus niger, UniProt P69328)
T1 construct: gene GLAA; commercial enzyme solution (Sigma A-3042), diluted with water
Experiment: initial rates plus fit of glucose-time curves (HPLC, starch-iodine) to Michaelis-Menten model with product inhibition
Assay type: biochemical
Details: free enzyme; soluble starch as substrate; pH 4.5, 55 °C; competitive product inhibition (assumed model); read-out: Ki (mg mL^-1) (converted)

T1 sequence (P69328 25-640): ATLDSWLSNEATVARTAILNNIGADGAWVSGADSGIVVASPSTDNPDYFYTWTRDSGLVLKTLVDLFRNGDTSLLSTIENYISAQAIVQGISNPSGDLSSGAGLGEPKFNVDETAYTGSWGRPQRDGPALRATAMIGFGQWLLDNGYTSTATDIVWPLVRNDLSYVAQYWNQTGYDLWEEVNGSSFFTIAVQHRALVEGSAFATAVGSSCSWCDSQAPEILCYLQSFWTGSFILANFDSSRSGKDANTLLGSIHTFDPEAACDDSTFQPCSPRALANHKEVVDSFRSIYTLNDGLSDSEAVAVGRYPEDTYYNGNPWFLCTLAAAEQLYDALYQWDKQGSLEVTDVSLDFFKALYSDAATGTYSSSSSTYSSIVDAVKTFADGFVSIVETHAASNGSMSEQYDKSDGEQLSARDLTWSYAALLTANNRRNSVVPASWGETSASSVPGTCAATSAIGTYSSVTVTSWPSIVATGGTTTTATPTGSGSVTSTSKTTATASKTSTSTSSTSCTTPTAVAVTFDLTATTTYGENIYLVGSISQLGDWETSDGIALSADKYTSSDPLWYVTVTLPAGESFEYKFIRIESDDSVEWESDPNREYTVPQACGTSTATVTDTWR

**Q.** How did the Ki turn out when `OC[C@H]1OC(O)[C@H](O)[C@@H](O)[C@@H]1O` (stereo partly shown) [glucose] was run?
**A.** Its Ki is 555 µM.
